PMC10650955, “α-Aminophosphonate inhibitors of metallo-β-lactamases NDM-1 and VIM-2” (RSC Medicinal Chemistry, 2023)
Where a name gives a salt, the structure may show the parent alone.

Key:
[1] = biological target: T1, NDM-1 (Klebsiella pneumoniae, UniProt C7C422); assay: Dose rate inhibition studies for IC50 determination, NDM-1 enzymatic assay; assay type: biochemical; conditions: Enzyme IC50 NDM-1, 10 nM NDM-1, 100 μM ZnCl2, imipenem substrate, inhibitor 0-800 μM, 3 parallel measurements; N.I. = no enzyme inhibitory activity observed
T1 construct: made in house
Description: (§1) The […] synthesized compounds 5a–l were tested for their inhibitory activities against NDM-1, VIM-2 (Table 1), and GIM-1 in an in vitro enzymatic assay (ESI ^†).[41] The inhibitory activity was measured using enzyme concentrations of 0.1 nM VIM-2, 10 nM NDM-1 or 1 nM GIM-1, with an excess Zn(II) (100 μM, see Experimental methods), with inhibitor compounds with concentrations from 0 to 800 μM. Each data point was measured in triplicates. […] This is in line with previous reports.[42,43]
(§2) A 100 μl solution with buffer (50 mM HEPES (pH 7.2), 100 μM ZnCl2, 2.5% DMSO), purified enzyme (0.1 nM VIM-2, 10 nM NDM-1 or 1 nM GIM-1) and 800–0 μM inhibitor was incubated in a 96 well plate at 25 °C for 5 min. In addition, the enzyme buffer contained 400 μg ml^−1 bovine serum albumin (BSA) to prevent protein unfolding and loss of activity due to low concentrations.[67,68] 100 μM of the reporter substrate nitrocefin (VIM-2, GIM-1) or imipenem (NDM-1) was added to the enzyme–inhibitor solution and the increase in absorbance at 482 nm (nitrocefin) or 300 nm (imipenem) was recorded on a Spectramax M4 spectrophotometer (Molecular Devices). Each data point was performed in triplicates and the initial velocity for each inhibitor concentration was analyzed by a log [inhibitor] vs. response curve fitting to calculate IC50 in GraphPad Prism 9.2 software.

[2] = biological target: T2, 15N-labelled VIM-2 (Escherichia coli, UniProt Q5U7L7); assay: 1H,15N HSQC NMR chemical shift perturbation titration, VIM-2; assay type: binding; conditions: VIM-2 Kd, 0-16 equiv. ligand, pH 7.0, 310 K
T2 construct: made in house
Description: (§3) Solution NMR spectroscopy is a powerful tool to assess protein–ligand interactions under close to physiological conditions.[47] We, therefore, performed NMR chemical shift perturbation (CSP, for details, see section S8, ESI ^†) experiments to identify the amino acid residues of NDM-1 and VIM-2 that are involved in inhibitor binding, making use of the previously published protein assignments.[48,49] Titrations were conducted using ^15N-labelled proteins with 0, 0.5, 1, 2, 4, 8, and 16 equiv. of 5 inhibitors for NDM-1 and of 7 inhibitors for VIM-2.
(§4) For the titrations, ^15N-labelled NDM-1 and ^15N-labelled VIM-2 (250 μM), and titrated ligands (0.5 equiv. in 1 μL) were prepared in the same buffer as the protein (20 mM KPO4, 0.1 mM ZnCl2, pH 7.0 with 10% D2O and 2.5% DMSO-d6). ^1H,^15N HSQC spectra were acquired with 128 × 1024 complex points (F1 × F2) and spectral width of 9090 × 2740 Hz on ^15N-labeled NDM-1/VIM-2 and with every titration step up to 1 : 16 ratio between protein : ligand (0, 0.5, 1, 2, 4, 8, and 16 equiv. of ligand). All experiments were recorded on a Bruker 600 MHz spectrometer at 310 K equipped with a 5 mm TCI cryogenic probe. The NMR data were processed on the MestReNova software with the Mnova Binding plugin. The weighted average chemical shift perturbations (CSP) for the backbone amides were calculated from the observed chemical shift differences in the proton and nitrogen dimensions using the equation (chemical shift scaling factors: FH = 1, FN = 0.156) CSP = Δδ1H,15N = [drawing 13] .
(§5) 7. Chemical shift perturbation histograms
(§6) Chemical shift perturbation was calculated according equation (1) 2
(§7) CSP = Δδ(1H,15N) = √(Δδ1H2 + (1⁄R × Δδ15N2) Rscale = 6.5 (1)
(§8) Where Δδ1H is the chemical shift change for proton dimension, Δδ15N is the chemical shift change for nitrogen dimension, Rscale is a
(§9) The chemical shift perturbations (CSP) were classified as significant (SSP) when the observed Δδ(1H,15N) was greater than the population
(§10) mean plus the standard deviation (µ+1σ) – solid line; (µ+2σ) – dashed line, and (µ+3σ) – dashed line.
(§11) Further on, Kd was calculated according: 3
(§12) ([P]+[L]+Kd)− √([P]+[L]+Kd)2−4[P][L]
(§13) ΔδmaxΔδobs = Δδmax 2[P] (2)
(§14) Where Kd is the dissociation constant, [P] and [L] are protein and ligand concentrations, respectively. Δδmax were estimated in
(§15) MestReNova by extrapolation of the obser ved chemical shift differences Δδobs.

[3] = biological target: T3, VIM-2 (Escherichia coli, UniProt Q5U7L7); assay: Dose rate inhibition studies for IC50 determination, VIM-2 enzymatic assay; assay type: biochemical; conditions: Enzyme IC50 VIM-2, 0.1 nM VIM-2, 100 μM ZnCl2, nitrocefin substrate, inhibitor 0-800 μM, 3 parallel measurements; N.I. = no enzyme inhibitory activity observed
T3 construct: made in house
Description: as §1, §2

[4] = biological target: T4, 15N-labelled NDM-1 (Klebsiella pneumoniae, UniProt C7C422); assay: 1H,15N HSQC NMR chemical shift perturbation titration, NDM-1; assay type: binding
T4 construct: made in house
Description: as §3, §4, §5, §6, §7, §8, §9, §10, §11, §12, §13, §14, §15

[5] = Estimated binding constant (Kd), residue 070F, Table S5, per-residue fit, NDM-1 070F
[6] = Estimated binding constant (Kd), residue 108E, Table S5, per-residue fit, NDM-1 108E
[7] = Estimated binding constant (Kd), residue 119T, Table S5, per-residue fit, NDM-1 119T
[8] = Estimated binding constant (Kd), residue 124D, Table S5, per-residue fit, NDM-1 124D
[9] = Estimated binding constant (Kd), residue 127G, Table S5, per-residue fit, NDM-1 127G
[10] = Estimated binding constant (Kd), residue 152E, Table S5, per-residue fit, NDM-1 152E
[11] = Estimated binding constant (Kd), residue 159H, Table S5, per-residue fit, NDM-1 159H
[12] = Estimated binding constant (Kd), residue 160S, Table S5, per-residue fit, NDM-1 160S
[13] = Estimated binding constant (Kd), residue 194I, Table S5, per-residue fit, NDM-1 194I
[14] = Estimated binding constant (Kd), residue 197G, Table S5, per-residue fit, NDM-1 197G
[15] = Estimated binding constant (Kd), residue 205F, Table S5, per-residue fit, NDM-1 205F
[16] = Estimated binding constant (Kd), residue 206G, Table S5, per-residue fit, NDM-1 206G
[17] = Estimated binding constant (Kd), residue 214K, Table S5, per-residue fit, NDM-1 214K
[18] = Estimated binding constant (Kd), residue 217S, Table S5, per-residue fit, NDM-1 217S
[19] = Estimated binding constant (Kd), residue 228H, Table S5, per-residue fit, NDM-1 228H
[20] = Estimated binding constant (Kd), residue 229Y, Table S5, per-residue fit, NDM-1 229Y
[21] = Estimated binding constant (Kd), residue 230A, Table S5, per-residue fit, NDM-1 230A
[22] = Estimated binding constant (Kd), residue 232S, Table S5, per-residue fit, NDM-1 232S
[23] = Estimated binding constant (Kd), residue 248M, Table S5, per-residue fit, NDM-1 248M
[24] = Estimated binding constant (Kd), residue 249S, Table S5, per-residue fit, NDM-1 249S
[25] = Estimated binding constant (Kd), residue 251S, Table S5, per-residue fit, NDM-1 251S
[26] = Estimated binding constant (Kd), residue 254D, Table S5, per-residue fit, NDM-1 254D
[27] = Estimated binding constant (Kd), residue 255S, Table S5, per-residue fit, NDM-1 255S
[28] = NDM-1 Kd, NMR chemical shift perturbation, 0-16 equiv. ligand, pH 7.0, 310 K

T4 sequence (C7C422 29-270 limits assumed): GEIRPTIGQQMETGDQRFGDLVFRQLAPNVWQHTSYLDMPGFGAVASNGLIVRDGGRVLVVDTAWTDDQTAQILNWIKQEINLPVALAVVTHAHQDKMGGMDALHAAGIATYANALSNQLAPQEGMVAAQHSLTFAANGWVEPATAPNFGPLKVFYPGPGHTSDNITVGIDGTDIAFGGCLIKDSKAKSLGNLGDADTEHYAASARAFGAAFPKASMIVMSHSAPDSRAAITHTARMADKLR
T1 sequence (C7C422 29-270 limits assumed): as above

SMILES | IC50 [1] [mM] | Kd [2] [mM] | IC50 [3] [mM] | Kd [4, 5] [mM] | Kd [4, 6] [mM] | Kd [4, 7] [mM] | Kd [4, 8] [mM] | Kd [4, 9] [mM] | Kd [4, 10] [mM] | Kd [4, 11] [mM] | Kd [4, 12] [mM] | Kd [4, 13] [mM] | Kd [4, 14] [mM] | Kd [4, 15] [mM] | Kd [4, 16] [mM] | Kd [4, 17] [mM] | Kd [4, 18] [mM] | Kd [4, 19] [mM] | Kd [4, 20] [mM] | Kd [4, 21] [mM] | other results
O=C(Cc1cccs1)NC(C1CCCCN1)P(=O)(O)O (stereo not drawn) [Compound 5i-2, (Piperidin-2-yl(2-(thiophen-2-yl)acetamido)methyl)phos-phonic acid hydrochloride] | 0.271 ± 0.034 | 1.1 ± 0.1 | 0.328 ± 0.116 | 4.9 | 2.03 | 26.4 | 14.1 | 1.76 | 1.18 | 8.3 | 17.6 | 2.49 | 15.2 | 6.84 | 6.81 | 0.78 | 16.4 | 10.1 | 2.3 | 2.71 | Kd ([4]; Estimated binding constant (Kd), residue 211K, Table S5, per-residue fit, NDM-1 211K): 17.1 mM; Kd [4, 22]: 5.57 mM; Kd [4, 23]: 2.58 mM; Kd [4, 24]: 8.45 mM; Kd [4, 25]: 3.38 mM; Kd [4, 26]: 5.01 mM; Kd [4, 27]: 1.66 mM; Kd ([4]; Estimated binding constant (Kd), residue 263A_266A, Table S5, per-residue fit, NDM-1 263A_266A): 0.69 mM; Kd [4, 28]: 1.4 ± 0.1 mM
O=C(Cc1ccsc1)NC(C1CCCCN1)P(=O)(O)O (stereo not drawn) [Compound 5j-1, (Piperidin-2-yl(2-(thiophen-3-yl)acetamido)methyl)phos-phonic acid hydrochloride] | 0.506 ± 0.333 | 0.9 ± 0.1 | 0.319 ± 0.069 | 2.54 | 3.54 | 7.97 | 12.4 | 12.4 | 32.9 | 8.39 | 15.7 | 6.1 | 3.05 | 8.41 | 7.72 | 1.96 | 8.15 | 4.94 | 1.31 | 8.81 | Kd ([4]; Estimated binding constant (Kd), residue 091T, Table S5, per-residue fit, NDM-1 091T): 2.11 mM; Kd ([4]; Estimated binding constant (Kd), residue 133H_225D, Table S5, per-residue fit, NDM-1 133H_225D): 1.42 mM; Kd ([4]; Estimated binding constant (Kd), residue 149A, Table S5, per-residue fit, NDM-1 149A): 3.18 mM; Kd ([4]; Estimated binding constant (Kd), residue 188G, Table S5, per-residue fit, NDM-1 188G): 6.63 mM; Kd [4, 22]: 21.3 mM; Kd [4, 23]: 8.64 mM; Kd [4, 24]: 34 mM; Kd [4, 25]: 12.3 mM; Kd [4, 26]: 9.29 mM; Kd [4, 27]: 18.6 mM; Kd [4, 28]: 2.2 ± 0.2 mM
